In the experiment the target is PI3Kδ (p110δ/p85α) (Homo sapiens (Human), UniProt O00329). Nature of the experiment: PI3Kδ scintillation proximity assay (Example A3). The experiment is classed as biochemical. Conditions: 20 μM ATP, 4 nM PI3Kδ, read-out: PI3Kδ SPA IC50. The procedure: [γ-^33P]ATP (10 mCi/mL) was purchased from Perkin-Elmer (Waltham, Mass.). […] PI3Kδ (p110δ/p85α) was purchased from Millipore (Bedford, Mass.). ATP, MgCl2, DTT, EDTA, MOPS and CHAPS were purchased from Sigma-Aldrich (St. Louis, Mo.). Wheat Germ Agglutinin (WGA) YSi SPA Scintillation Beads was purchased from GE healthcare life sciences (Piscataway, N.J.).
PI3Kδ (p110δ/p85α), sequence (O00329 whole entry, species assumed): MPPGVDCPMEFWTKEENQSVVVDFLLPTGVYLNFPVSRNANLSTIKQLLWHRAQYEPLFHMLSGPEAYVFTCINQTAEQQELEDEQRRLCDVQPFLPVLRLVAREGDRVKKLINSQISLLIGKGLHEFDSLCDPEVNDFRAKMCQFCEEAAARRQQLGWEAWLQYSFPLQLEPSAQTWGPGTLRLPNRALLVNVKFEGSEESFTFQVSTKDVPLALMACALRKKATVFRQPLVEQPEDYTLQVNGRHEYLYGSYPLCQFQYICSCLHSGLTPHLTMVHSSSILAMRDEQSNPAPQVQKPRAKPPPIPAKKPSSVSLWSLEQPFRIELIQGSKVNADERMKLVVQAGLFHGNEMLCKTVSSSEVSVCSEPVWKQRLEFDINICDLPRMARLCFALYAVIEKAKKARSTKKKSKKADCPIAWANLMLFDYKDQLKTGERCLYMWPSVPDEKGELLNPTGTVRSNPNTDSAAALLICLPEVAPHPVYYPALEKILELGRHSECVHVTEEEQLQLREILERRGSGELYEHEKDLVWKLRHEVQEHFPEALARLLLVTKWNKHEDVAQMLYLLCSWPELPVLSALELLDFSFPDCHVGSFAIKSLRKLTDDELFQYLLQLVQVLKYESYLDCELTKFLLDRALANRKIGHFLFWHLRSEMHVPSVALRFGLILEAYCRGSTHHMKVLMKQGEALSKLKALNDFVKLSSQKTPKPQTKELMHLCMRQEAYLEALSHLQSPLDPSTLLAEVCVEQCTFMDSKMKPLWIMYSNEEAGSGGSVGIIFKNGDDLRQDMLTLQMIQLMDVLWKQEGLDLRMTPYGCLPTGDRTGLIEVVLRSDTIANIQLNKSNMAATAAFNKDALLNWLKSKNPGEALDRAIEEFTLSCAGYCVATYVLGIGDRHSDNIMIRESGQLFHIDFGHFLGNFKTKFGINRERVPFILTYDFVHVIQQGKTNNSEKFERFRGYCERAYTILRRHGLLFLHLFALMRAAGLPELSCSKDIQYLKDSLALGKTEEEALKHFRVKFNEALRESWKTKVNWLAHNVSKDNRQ
PI3Kδ (p110δ/p85α), sequence (P27986 whole entry partner, species assumed): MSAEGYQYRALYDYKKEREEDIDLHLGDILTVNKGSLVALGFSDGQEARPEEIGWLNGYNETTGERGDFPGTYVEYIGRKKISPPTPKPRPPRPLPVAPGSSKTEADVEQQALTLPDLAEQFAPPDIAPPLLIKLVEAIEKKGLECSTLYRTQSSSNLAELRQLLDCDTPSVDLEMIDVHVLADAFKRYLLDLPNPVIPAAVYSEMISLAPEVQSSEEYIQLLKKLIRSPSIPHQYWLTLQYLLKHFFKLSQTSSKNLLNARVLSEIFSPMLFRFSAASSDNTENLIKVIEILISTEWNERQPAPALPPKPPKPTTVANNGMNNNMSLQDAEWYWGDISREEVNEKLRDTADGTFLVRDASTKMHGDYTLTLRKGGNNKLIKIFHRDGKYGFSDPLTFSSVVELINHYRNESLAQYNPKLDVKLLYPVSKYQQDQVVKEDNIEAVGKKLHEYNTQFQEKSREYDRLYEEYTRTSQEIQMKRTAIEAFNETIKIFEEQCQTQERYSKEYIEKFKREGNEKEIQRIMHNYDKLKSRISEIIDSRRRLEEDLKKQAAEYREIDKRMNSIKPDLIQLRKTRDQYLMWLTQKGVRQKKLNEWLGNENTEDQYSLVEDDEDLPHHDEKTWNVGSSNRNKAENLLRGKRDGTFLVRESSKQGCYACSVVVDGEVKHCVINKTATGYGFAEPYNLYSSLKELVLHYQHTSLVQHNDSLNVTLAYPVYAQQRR
The kinase reaction was conducted in polystyrene 384-well matrix white plate from Thermo Fisher Scientific in a final volume of 25 μL. Inhibitors were first diluted serially in DMSO and added to the plate wells before the addition of other reaction components. The final concentration of DMSO in the assay was 0.5%. The PI3K assays were carried out at room temperature in 20 mM MOPS, pH 6.7, 10 mM MgCl2, 5 mM DTT and CHAPS 0.03%. Reactions were initiated by the addition of ATP, the final reaction mixture consisted of 20 μM PIP2, 20 μM ATP, 0.2 μCi [γ-^33P] ATP, 4 nM PI3Kδ. […] 25 mM EDTA, 400 μM ATP. The final concentration of SPA beads was 1.0 mg/mL. After the plate sealing, plates were shaken overnight at room temperature and centrifuged at 1800 rpm for 10 minutes, the radioactivity of the product was determined by scintillation counting on Topcount (Perkin-Elmer). IC50 determination was performed by fitting the curve of percent control activity versus the log of the inhibitor concentration using the GraphPad Prism 3.0 software.
On to `COc1c(C(C)n2nc(C)c3c(N)ncnc32)cc(Cl)c(F)c1C1CN(C[C@H](C)O)C1` (single isomer, unassigned) [68 (2nd peak)], for which the IC50 is under 10 nM.

On to `CCOc1c(C(C)n2nc(C)c3c(N)ncnc32)cc(Cl)c(C)c1-c1ccc(C(=O)N(C)C)cn1` (centres unmarked) [Example 208, 6-{3-[1-(4-Amino-3-methyl-1H-pyrazolo[3,4-d]pyrimidin-1-yl)ethyl]-5-chloro-2-ethoxy-6-methylphenyl}-N,N-dimethylnicotinamide bis(trifluoroacetate)], for which the half-maximal inhibitory concentration (IC50) was under 10 nM.

Turning to `CCOc1c(C(C)n2nc(C)c3c(N)ncnc32)cc(Cl)c(C)c1C#N` (centres unmarked) [Example 211, 3-[1-(4-Amino-3-methyl-1H-pyrazolo[3,4-d]pyrimidin-1-yl)ethyl]-5-chloro-2-ethoxy-6-methylbenzonitrile], the IC50 is under 10 nM.

As for `COc1c(C(C)n2nc(C)c3c(N)ncnc32)cc(Cl)c(C)c1-c1cncc(C(=O)N(C)C2CC2)c1` (centres unmarked) [Example 174, 5-(3-(1-(4-Amino-3-methyl-1H-pyrazolo[3,4-d]pyrimidin-1-yl)ethyl)-5-chloro-2-methoxy-6-methylphenyl)-N-cyclopropyl-N-methylnicotinamide bis(2,2,2-trifluoroacetate)], the half-maximal inhibitory concentration (IC50) was under 10 nM.

Take `CCOc1c(C(C)n2nc(C)c3c(N)ncnc32)cc(Cl)c(C)c1-c1cnn(CC(N)=O)c1` (centres unmarked) [Example 203, 2-(4-(3-(1-(4-Amino-3-methyl-1H-pyrazolo[3,4-d]pyrimidin-1-yl)ethyl)-5-chloro-2-ethoxy-6-methylphenyl)-1H-pyrazol-1-yl)acetamide]: the 50% inhibitory concentration (IC50) is under 10 nM.

As to `COc1c(C(C)n2nc(C)c3c(N)ncnc32)cc(Cl)c(C)c1CC#N` (centres unmarked) [Example 194, {3-[1-(4-Amino-3-methyl-1H-pyrazolo[3,4-d]pyrimidin-1-yl)ethyl]-5-chloro-2-methoxy-6-methylphenyl}acetonitrile], the half-inhibitory concentration (IC50) is under 10 nM.

`COc1c(C(C)n2nc(C)c3c(N)ncnc32)cc(Cl)c(C)c1-c1ccc(OCCO)nc1` (centres unmarked) [Example 188, 2-(5-(3-(1-(4-Amino-3-methyl-1H-pyrazolo[3,4-d]pyrimidin-1-yl)ethyl)-5-chloro-2-methoxy-6-methylphenyl)pyridin-2-yloxy)ethanol]: the IC50 is under 10 nM.

For the molecule `COc1c(C(C)n2nc(C(F)F)c3c(N)ncnc32)cc(Cl)c(C)c1-c1ccc(C(=O)N(C)C)nc1` (centres unmarked) [Example 191, 5-(3-{1-[4-Amino-3-(difluoromethyl)-1H-pyrazolo[3,4-d]pyrimidin-1-yl]ethyl}-5-chloro-2-methoxy-6-methylphenyl)-N,N-dimethylpyridine-2-carboxamide], the IC50 was under 10 nM.

On to `COc1c(C(C)n2nc(C)c3c(N)ncnc32)cc(Cl)c(C)c1-c1ccc(NCCO)nc1` (centres unmarked) [Example 184, 2-[(5-{3-[1-(4-Amino-3-methyl-1H-pyrazolo[3,4-d]pyrimidin-1-yl)ethyl]-5-chloro-2-methoxy-6-methylphenyl}pyridin-2-yl)amino]ethanol], for which the concentration for half-maximal inhibition (IC50) is under 10 nM.

On to `Cc1c(Cl)cc(C(C)n2nc(C)c3c(N)ncnc32)c(OCC(F)F)c1-c1ccc(C(=O)N(C)C)nc1` (centres unmarked) [Example 189, 5-(3-(1-(4-Amino-3-methyl-1H-pyrazolo[3,4-d]pyrimidin-1-yl)ethyl)-5-chloro-2-(2,2-difluoroethoxy)-6-methylphenyl)-N,N-dimethylpicolinamide bis(2,2,2-trifluoroacetate)], for which the IC50 is under 10 nM.

On to `Cc1c(Cl)cc(C(C)n2nc(C)c3c(N)ncnc32)c(OCC2CC2)c1-c1ccc(C(=O)N(C)C)nc1` (centres unmarked) [Example 190, 5-(3-(1-(4-Amino-3-methyl-1H-pyrazolo[3,4-d]pyrimidin-1-yl)ethyl)-5-chloro-2-(cyclopropylmethoxy)-6-methylphenyl)-N,N-dimethylpicolinamide bis(2,2,2-trifluoroacetate)], for which the IC50 was under 10 nM.

Source of the values: patent publication US10376513B2, “Heterocyclylamines as PI3K inhibitors” (Incyte Corporation, priority 2011, dated 2019).
